Source: paper PMC3382068 (Bioorganic & medicinal chemistry, 2011)
“Also recorded” adds a separate entry of the source. One block for each compound: values may come before it.

Tests used:
[1] = biological target: T1, hIcmt (Homo sapiens, UniProt O60725); assay: Kinetic mode of inhibition and KI determination
[2] = tested on: Ras activation in Jurkat T cells; assay: GST-RBD pull down assay of active GTP-bound Ras; type: cell-based; conditions: 25 μM, 24 h, then anti-CD-3ε stimulation
[3] = tested on: GFP-K-Ras in Jurkat T cells; assay: Subcellular localization of GFP-K-Ras by fluorescence microscopy; type: cell-based; conditions: 0.1 μM, 24 hours
[4] = tested on: Erk phosphorylation in Jurkat T cells; assay: Signaling assay: anti-CD-3ε dependent Erk phosphorylation; type: cell-based; conditions: 25 μM, 24 h, then anti-CD-3ε stimulation
[5] = biological target: T1, hIcmt; assay: In vitro vapor diffusion methyltransferase assay, inhibition of hIcmt; type: biochemical; conditions: for Loss of inhibitory activity as compared to compound 1a: fold; for hIcmt inhibition (in words): 10 μM compound, 25 μM AFC
[6] = tested on: PC3 prostate cancer cells; conditions: cited from earlier work
[7] = biological target: T1, hIcmt; conditions: read-out: IC50 against hIcmt; previously reported; cited from earlier work

T1 sequence (O60725 whole entry): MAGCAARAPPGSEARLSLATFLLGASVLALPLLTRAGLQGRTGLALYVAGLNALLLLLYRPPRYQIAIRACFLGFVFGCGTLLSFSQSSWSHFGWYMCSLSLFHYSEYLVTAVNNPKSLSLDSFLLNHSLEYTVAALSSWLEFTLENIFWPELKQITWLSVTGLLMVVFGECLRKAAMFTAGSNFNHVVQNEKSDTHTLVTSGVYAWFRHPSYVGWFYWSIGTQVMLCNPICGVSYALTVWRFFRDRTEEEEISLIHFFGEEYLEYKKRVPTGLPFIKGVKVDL

Compound: CC(C)=CC/C(=C/CSC[C@H](NC(=O)c1ccccc1Oc1ccccc1)C(=O)O)CCc1ccc(-c2ccccc2)cc1 [Compound 1b, N-2-Phenoxybenzoyl-S-3-(3-methyl-but-2-enyl)-5-(4-biphenyl)pent-2-enyl-L-cysteine]
- Ki [1]: 0.5 ± 0.07 µM
- Mode of inhibition ([1]; AFC varied, inhibitor concentration fixed): mixed-mode inhibition; also recorded: mixed-type inhibition
- α value ([1]; mixed-type inhibition, competitive component dominated): greater than 1
- Ras activation [2]: inhibited Ras activation significantly
- Prevention of GFP-K-Ras membrane localization [3]: approximately 35%
- Decrease of Erk activation compared to the control [4]: approximately three-fold

Compound: CC(C)=CCC/C(C)=C/CC/C(C)=C/CSC[C@H](NC(=O)c1ccccc1Cc1ccccc1)C(=O)O [Compound 2c, (R)-2-(2-benzylbenzamido)-3-(((2E,6E)-3,7,11-trimethyldodeca-2,6,10-trien-1-yl)thio)propanoic acid]
- Loss of inhibitory activity as compared to compound 1a [5]: roughly four-fold

Compound: CC(C)=CCC/C(C)=C/CC/C(C)=C/CSC[C@H](NC(=O)c1ccccc1Sc1ccccc1)C(=O)O [Compound 2d, (R)-2-(2-(phenylthio)benzamido)-3-(((2E,6E)-3,7,11-trimethyldodeca-2,6,10-trien-1-yl)thio)propanoic acid]
- Loss of inhibitory activity as compared to compound 1a [5]: roughly four-fold

Compound: CC(C)=CCC/C(C)=C/CC/C(C)=C/CSC[C@@H](C(=O)O)N(C)C(=O)c1ccccc1Oc1ccccc1 [Compound 20, (R)-2-(N-methyl-2-phenoxybenzamido)-3-(((2E,6E)-3,7,11-trimethyldodeca-2,6,10-trien-1-yl)thio)propanoic acid]
- hIcmt inhibition (in words) [5]: equivalent to our previous lead, 1a, in terms of percent inhibition

Compound: CCCCCCCCn1cc(CC(N)=O)c2cc(-c3cccc(C)c3)ccc21 [Cysmethynil]
- Effect on PC3 prostate cancer cells [6]: induction of autophagic cell death

Compound: anthranilic farnesylcysteine [anthranilic acid analog]
- IC50 [7]: 7.1 µM

Now from value to compound:

- hIcmt inhibition (in words) [5]: significant loss of hIcmt inhibition
Compound: CC(C)=CCC/C(C)=C/CC/C(C)=C/CC/C(C)=C/CSC[C@H](NC(=O)c1ccccc1Oc1ccccc1)C(=O)O [Compound 19, (R)-2-(2-phenoxybenzamido)-3-(((2E,6E,10E)-3,7,11,15-tetramethylhexadeca-2,6,10,14-tetraen-1-yl)thio)propanoic acid]

- hIcmt inhibition (in words) [5]: particularly poor inhibitor of hIcmt
Compound: CCCCCCCCCCCSC[C@H](NC(=O)c1ccccc1Oc1ccccc1)C(=O)O [Compound 21, ((R)-2-(2-phenoxybenzamido)-3-(undecylthio)propanoic acid)]
